These results are taken from ChEMBL document CHEMBL5291721, “A preclinical secondary pharmacology resource illuminates target-adverse drug reaction associations of marketed drugs” (Nat Commun, 2023).

The term AC50 denotes the midpoint of the concentration-response curve, whichever way the signal moves.

Assay [1] deals with Prothrombin (Homo sapiens, UniProt P00734). It counts as functional.
For assay [2], the target named is T1, Alpha-1A adrenergic receptor (Homo sapiens, UniProt P35348).
T1 sequence (P35348 whole entry): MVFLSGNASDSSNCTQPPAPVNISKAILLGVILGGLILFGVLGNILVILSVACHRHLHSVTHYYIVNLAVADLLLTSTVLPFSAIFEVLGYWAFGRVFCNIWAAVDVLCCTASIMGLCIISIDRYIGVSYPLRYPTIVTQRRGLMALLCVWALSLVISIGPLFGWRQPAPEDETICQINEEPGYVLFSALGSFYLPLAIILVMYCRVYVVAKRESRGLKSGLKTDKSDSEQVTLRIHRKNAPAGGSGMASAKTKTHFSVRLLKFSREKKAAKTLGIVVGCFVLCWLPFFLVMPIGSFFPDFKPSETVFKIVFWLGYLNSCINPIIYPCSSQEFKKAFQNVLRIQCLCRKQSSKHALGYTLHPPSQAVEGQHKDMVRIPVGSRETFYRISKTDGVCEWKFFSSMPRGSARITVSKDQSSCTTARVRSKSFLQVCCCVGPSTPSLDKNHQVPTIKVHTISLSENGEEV
It counts as functional, cell-based.

Assay [3] concerns the target T2, Alpha-2A adrenergic receptor (Homo sapiens, UniProt P08913).
T2 sequence (P08913 whole entry): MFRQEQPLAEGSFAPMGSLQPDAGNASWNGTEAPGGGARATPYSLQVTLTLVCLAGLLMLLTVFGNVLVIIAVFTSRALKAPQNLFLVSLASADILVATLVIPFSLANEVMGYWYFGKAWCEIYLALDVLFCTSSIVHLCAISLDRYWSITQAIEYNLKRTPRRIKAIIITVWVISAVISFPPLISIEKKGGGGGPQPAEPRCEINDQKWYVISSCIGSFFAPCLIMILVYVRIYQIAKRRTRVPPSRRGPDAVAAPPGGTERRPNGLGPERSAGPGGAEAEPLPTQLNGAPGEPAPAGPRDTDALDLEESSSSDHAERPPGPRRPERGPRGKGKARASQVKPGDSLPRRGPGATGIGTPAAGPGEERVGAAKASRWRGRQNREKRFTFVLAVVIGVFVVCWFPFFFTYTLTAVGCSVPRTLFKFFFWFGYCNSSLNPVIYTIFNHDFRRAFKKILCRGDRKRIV

Assay [4] deals with Sodium-dependent dopamine transporter (Homo sapiens, UniProt Q01959).
Sodium-dependent dopamine transporter, sequence (Q01959 whole entry): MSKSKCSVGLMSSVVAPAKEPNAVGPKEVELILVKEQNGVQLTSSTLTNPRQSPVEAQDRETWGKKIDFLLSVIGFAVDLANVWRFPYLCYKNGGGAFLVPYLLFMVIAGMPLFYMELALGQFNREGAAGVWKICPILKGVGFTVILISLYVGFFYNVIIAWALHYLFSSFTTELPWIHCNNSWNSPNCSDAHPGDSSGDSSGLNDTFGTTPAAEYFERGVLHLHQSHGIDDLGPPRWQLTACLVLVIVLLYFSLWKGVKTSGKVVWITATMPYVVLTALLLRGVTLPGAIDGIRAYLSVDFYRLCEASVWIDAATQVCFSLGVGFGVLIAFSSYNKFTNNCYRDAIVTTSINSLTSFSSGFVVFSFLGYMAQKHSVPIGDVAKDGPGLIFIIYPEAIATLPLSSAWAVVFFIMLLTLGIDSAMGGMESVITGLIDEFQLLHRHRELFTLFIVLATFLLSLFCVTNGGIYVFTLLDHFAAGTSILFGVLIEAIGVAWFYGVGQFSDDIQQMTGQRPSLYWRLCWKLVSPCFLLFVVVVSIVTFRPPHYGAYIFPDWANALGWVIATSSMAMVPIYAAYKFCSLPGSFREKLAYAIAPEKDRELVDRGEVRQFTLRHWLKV
In assay [5] the target is 3',5'-cyclic-AMP phosphodiesterase 4A (Homo sapiens, UniProt P27815). It counts as functional.
3',5'-cyclic-AMP phosphodiesterase 4A, sequence (P27815 whole entry): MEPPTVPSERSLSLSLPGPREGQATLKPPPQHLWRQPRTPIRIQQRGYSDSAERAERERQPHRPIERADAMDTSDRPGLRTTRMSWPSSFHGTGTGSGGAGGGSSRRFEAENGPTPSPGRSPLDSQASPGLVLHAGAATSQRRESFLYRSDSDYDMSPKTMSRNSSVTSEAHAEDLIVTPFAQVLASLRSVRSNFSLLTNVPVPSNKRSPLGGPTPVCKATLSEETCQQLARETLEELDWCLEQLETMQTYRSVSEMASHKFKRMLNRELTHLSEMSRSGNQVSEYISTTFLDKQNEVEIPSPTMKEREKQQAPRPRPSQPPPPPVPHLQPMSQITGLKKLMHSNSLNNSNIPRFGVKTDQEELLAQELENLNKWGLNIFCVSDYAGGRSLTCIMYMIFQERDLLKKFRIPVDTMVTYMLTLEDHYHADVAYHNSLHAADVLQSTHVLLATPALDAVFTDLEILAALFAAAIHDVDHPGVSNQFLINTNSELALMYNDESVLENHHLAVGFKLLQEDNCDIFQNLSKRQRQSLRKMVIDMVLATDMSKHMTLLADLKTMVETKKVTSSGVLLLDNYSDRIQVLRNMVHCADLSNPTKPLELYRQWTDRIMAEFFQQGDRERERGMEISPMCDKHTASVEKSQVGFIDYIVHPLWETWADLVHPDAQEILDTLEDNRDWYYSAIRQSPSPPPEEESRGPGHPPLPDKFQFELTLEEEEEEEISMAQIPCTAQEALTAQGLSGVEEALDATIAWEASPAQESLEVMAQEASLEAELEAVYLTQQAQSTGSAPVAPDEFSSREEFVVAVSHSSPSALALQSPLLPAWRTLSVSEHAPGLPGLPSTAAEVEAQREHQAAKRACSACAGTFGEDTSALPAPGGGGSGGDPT
Assay [6] concerns the target T3, Muscarinic acetylcholine receptor M2 (Homo sapiens, UniProt P08172).
T3 sequence (P08172 whole entry): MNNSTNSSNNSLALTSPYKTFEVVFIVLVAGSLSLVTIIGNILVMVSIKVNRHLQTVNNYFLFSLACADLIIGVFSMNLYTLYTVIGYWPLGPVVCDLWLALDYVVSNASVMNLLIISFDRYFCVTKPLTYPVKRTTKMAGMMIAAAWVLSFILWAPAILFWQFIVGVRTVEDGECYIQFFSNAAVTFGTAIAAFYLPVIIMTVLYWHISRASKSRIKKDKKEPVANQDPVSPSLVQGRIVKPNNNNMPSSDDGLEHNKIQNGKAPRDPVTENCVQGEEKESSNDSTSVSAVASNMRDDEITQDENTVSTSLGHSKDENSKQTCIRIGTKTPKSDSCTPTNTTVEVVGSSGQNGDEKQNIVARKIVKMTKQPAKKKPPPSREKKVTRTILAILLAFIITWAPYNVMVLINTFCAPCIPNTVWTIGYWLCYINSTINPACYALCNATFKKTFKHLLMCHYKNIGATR

The target of assay [7] is Voltage-gated inwardly rectifying potassium channel KCNH2 (Homo sapiens, UniProt Q12809). It counts as functional. Conditions: read-out: AC50.
Voltage-gated inwardly rectifying potassium channel KCNH2, sequence (Q12809 whole entry): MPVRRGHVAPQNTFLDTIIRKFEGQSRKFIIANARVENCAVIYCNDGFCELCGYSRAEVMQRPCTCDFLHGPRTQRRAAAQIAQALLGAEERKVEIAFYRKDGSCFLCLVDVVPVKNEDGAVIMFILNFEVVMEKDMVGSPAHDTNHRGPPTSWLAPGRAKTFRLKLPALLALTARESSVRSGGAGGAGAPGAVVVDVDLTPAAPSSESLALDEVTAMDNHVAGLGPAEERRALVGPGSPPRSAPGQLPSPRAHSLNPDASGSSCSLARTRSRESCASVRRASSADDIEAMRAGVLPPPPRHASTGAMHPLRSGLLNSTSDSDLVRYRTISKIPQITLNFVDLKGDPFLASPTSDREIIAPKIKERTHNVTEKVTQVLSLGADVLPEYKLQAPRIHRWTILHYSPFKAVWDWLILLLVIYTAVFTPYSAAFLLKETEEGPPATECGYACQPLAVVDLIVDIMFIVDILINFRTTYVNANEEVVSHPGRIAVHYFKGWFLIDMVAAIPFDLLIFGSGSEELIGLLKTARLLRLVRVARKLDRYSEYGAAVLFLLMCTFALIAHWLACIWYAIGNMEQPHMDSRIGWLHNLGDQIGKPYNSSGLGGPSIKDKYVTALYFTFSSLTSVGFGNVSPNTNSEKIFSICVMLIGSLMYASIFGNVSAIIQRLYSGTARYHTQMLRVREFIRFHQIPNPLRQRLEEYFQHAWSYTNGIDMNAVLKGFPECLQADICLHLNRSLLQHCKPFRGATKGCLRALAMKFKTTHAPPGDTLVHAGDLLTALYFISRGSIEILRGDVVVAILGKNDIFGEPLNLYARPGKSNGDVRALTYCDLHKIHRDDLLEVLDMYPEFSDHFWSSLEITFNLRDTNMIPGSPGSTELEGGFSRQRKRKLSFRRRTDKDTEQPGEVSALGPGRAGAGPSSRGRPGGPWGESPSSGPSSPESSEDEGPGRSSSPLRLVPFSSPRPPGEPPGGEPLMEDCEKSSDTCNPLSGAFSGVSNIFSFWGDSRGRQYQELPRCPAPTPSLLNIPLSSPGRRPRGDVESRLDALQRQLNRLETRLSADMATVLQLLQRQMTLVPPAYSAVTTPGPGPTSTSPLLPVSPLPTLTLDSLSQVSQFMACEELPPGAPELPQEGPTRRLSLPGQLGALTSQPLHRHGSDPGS
The target of assay [8] is T4, Muscarinic acetylcholine receptor M1 (Homo sapiens, UniProt P11229).
T4 sequence (P11229 whole entry): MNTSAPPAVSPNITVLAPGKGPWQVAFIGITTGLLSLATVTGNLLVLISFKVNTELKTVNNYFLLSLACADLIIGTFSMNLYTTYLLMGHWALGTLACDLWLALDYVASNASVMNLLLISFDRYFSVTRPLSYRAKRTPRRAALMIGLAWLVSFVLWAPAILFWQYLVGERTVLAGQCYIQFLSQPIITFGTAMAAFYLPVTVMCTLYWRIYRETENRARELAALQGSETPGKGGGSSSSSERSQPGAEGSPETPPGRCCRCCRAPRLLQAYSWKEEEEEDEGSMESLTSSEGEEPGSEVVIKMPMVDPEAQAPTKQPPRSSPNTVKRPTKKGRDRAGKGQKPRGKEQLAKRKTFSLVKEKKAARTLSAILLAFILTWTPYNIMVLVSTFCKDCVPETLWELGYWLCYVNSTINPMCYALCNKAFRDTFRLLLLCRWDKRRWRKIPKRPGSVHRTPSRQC
It counts as functional, cell-based.

Assay [9] addresses D(3) dopamine receptor (Homo sapiens, UniProt P35462).
The target of assay [10] is T5, Thromboxane A2 receptor (Homo sapiens, UniProt P21731).
T5 sequence (P21731 whole entry): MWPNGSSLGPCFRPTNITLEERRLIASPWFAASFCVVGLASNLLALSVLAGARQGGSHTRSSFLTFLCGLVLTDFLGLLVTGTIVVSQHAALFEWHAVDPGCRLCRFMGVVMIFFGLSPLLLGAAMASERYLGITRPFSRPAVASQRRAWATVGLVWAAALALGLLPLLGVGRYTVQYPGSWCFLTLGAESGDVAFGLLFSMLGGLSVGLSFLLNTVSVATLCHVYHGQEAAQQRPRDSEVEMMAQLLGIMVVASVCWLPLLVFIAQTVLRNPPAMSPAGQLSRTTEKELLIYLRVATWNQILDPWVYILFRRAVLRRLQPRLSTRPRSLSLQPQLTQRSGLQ
It counts as functional, cell-based.
Also: assay procedure not described here.

D(3) dopamine receptor, sequence (P35462 whole entry): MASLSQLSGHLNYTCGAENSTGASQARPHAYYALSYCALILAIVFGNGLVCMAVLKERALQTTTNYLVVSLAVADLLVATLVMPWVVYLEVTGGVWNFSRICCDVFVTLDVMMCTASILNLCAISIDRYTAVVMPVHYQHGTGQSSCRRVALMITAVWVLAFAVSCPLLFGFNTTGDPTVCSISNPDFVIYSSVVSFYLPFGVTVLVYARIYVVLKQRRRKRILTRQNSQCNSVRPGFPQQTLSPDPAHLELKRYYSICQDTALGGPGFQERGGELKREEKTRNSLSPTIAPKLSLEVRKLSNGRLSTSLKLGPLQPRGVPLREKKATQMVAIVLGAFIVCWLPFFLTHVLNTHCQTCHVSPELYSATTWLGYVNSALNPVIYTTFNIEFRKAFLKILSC

As to `CC(=O)Oc1c(C)c(C)c2c(c1C)CC[C@@](C)(CCC[C@H](C)CCC[C@H](C)CCCC(C)C)O2`, the AC50 in assay [1] was more than 30 µM; in assay [2] it was more than 30 µM; in [3] it was more than 30 µM; in assay [4] it was more than 30 µM; in [5], 9.38 µM; in assay [6] it was more than 30 µM. The AC50 in [7], in [8], in [9] and in assay [10] was more than 30 µM throughout.

Consider `CC[C@@H](C(N)=O)N1CCCC1=O`, for which the AC50 in [1], in assay [2], in assay [3], in assay [4], in assay [5] and in assay [6] was more than 30 µM each time. For the same molecule, the AC50 in assay [7], in assay [8], in [9] and in assay [10] was more than 30 µM each time.

Regarding `CCC(CC)(CC(=O)Nc1cccc(/C=C/c2nc(C3CCC3)cs2)c1)C(=O)O`, the AC50 in assay [1] was more than 30 µM; in assay [2] it was more than 3 µM; in assay [3] it was more than 30 µM; in assay [4], more than 30 µM; in [5] it was more than 30 µM; in assay [6], more than 30 µM. In addition, the AC50 in [7] is more than 30 µM; in [8], more than 10 µM; in assay [9], more than 30 µM; in assay [10] it was more than 10 µM.

As to `CC(=O)[C@@]1(O)CC[C@H]2[C@@H]3C=C(C)C4=CC(=O)CC[C@]4(C)[C@H]3CC[C@@]21C`, the AC50 in assay [1], in assay [2], in assay [3], in assay [4], in assay [5] and in [6] was more than 30 µM in each case. Further, the AC50 in [7], in [8], in [9] and in assay [10] was more than 30 µM in each case.

Take `CCOC(=O)[C@H](CCc1ccccc1)N[C@@H](C)C(=O)N1CC2(C[C@H]1C(=O)O)SCCS2`: the AC50 in assay [1], in assay [2], in assay [3], in assay [4], in assay [5] and in assay [6] was more than 30 µM each time. The AC50 in assay [7], in assay [8], in [9] and in [10] was more than 30 µM in each case.

With `CC(=O)c1ccc2c(c1)N(CCCN(C)C)c1ccccc1S2` [ACEPROMAZINE], the AC50 in assay [1] was more than 30 µM; in [2] it was 0.003 µM; in assay [3], 0.418 µM; in assay [4], 19.5 µM; in assay [5], more than 30 µM; in assay [6] it was 0.204 µM. The AC50 in assay [7] is 2.5 µM; in assay [8] it was more than 30 µM; in assay [9], 0.0087 µM; in assay [10], more than 30 µM.

In the case of `Nc1ccncc1N` [AMIFAMPRIDINE], the AC50 in [1], in [2], in assay [3], in assay [4], in assay [5] and in assay [6] was more than 30 µM throughout. The AC50 in assay [7], in assay [8], in assay [9] and in [10] was more than 30 µM in each case.

For `CCC(C)(C)c1ccc(CC(C)CN2C[C@@H](C)O[C@@H](C)C2)cc1` (stereo partly drawn) [AMOROLFINE], the AC50 in [1], in assay [2], in [3], in [4], in assay [5] and in assay [6] was more than 30 µM each time. Also, the AC50 in assay [7] was 11 µM; in [8], more than 30 µM; in [9] it was 22 µM; in [10], more than 30 µM.

In the case of `N=c1ccn2c(n1)O[C@H]1[C@H](O)[C@@H](CO)O[C@H]12` [ANCITABINE], the AC50 in assay [1], in assay [2], in [3], in [4], in assay [5] and in [6] was more than 30 µM each time. In addition, the AC50 in assay [7], in [8], in assay [9] and in assay [10] was more than 30 µM in each case.

As for `CCCNC(C)C(=O)Nc1c(C)csc1C(=O)OC` (stereo not drawn) [ARTICAINE], the AC50 in [1], in [2], in [3], in [4], in [5] and in assay [6] was more than 30 µM in each case. Besides, the AC50 in assay [7], in assay [8], in assay [9] and in [10] was more than 30 µM throughout.

As to `CC(C)(C)N1CCC(c2ccccc2)(c2ccccc2)CC1` [BUDIPINE], the AC50 is more than 30 µM in assay [1]; more than 30 µM in [2]; more than 30 µM in [3]; more than 30 µM in assay [4]; more than 30 µM in [5]; 0.301 µM in assay [6]. Also, the AC50 in [7] was 6.5 µM; in assay [8], more than 30 µM; in [9], more than 30 µM; in [10], more than 30 µM.

On to `Cc1cc(OP(=O)(O)O)c2ccccc2c1OP(=O)(O)O` [MENADIOL SODIUM DIPHOSPHATE], for which the AC50 in [1], in assay [2], in assay [3], in assay [4], in [5] and in assay [6] was more than 30 µM each time. Moreover, the AC50 in assay [8], in [9] and in assay [10] was more than 30 µM throughout.

`O=[N+]([O-])c1cn2c(n1)OC[C@@H](OCc1ccc(OC(F)(F)F)cc1)C2` [PRETOMANID]: the AC50 in assay [1] is more than 30 µM; in assay [2], more than 10 µM; in [3], more than 30 µM; in assay [4], more than 30 µM; in assay [5], more than 30 µM; in assay [6], more than 30 µM. Moreover, the AC50 in assay [8], in [9] and in [10] was more than 30 µM each time.
